From the supplement of paper PMC10702517
± gives the standard deviation.

How the values were obtained:
[1] = chemical recovery by SPE of plasma after PDMS sampling; higher = better extraction; settings: pooled human plasma, extraction method: HLB SPE of plasma after PES
[2] = chemical recovery from spiked human plasma; higher = better extraction; settings: pooled human plasma
[3] = extraction method: SPE only (HLB 96-well), PES comparison experiment
[4] = extraction method: solvent precipitation (ACN + hexane)
[5] = extraction method: PES+SPE (3 d PDMS equilibration then HLB SPE)
[6] = extraction method: SPE only (HLB 96-well)
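Throughout, for chemical recovery by SPE of plasma after PDMS sampling: over 400 spiked chemicals quantified by LC-HRMS or GC-HRMS via internal standard calibration, recovery relative to spike mix added to unspiked plasma extract to correct matrix effects.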

chemical recovery [2, 4] [%] | chemical recovery [2, 5] [%] | chemical recovery [2, 6] [%] | Compound | also measured
 |  |  | CCc1cccc(C)c1N(C(=O)CS(=O)(=O)O)[C@@H](C)C(=O)O | chemical recovery by SPE of plasma ([1]; equilibration time (d): 3): 28.5 ± 9.3%; chemical recovery by SPE of plasma ([1]; equilibration time (d): 6): 33.9 ± 4.1%
 |  |  | CCc1cccc(C)c1NC(=O)CS(=O)(=O)O | chemical recovery by SPE of plasma ([1]; equilibration time (d): 1): 37.4 ± 8.2%; chemical recovery by SPE of plasma ([1]; equilibration time (d): 3): 40.4 ± 2%; chemical recovery by SPE of plasma ([1]; equilibration time (d): 6): 40.3 ± 9.3%; chemical recovery [2, 3]: 42.9 ± 4.2%
78.6 ± 6.2 |  |  | CO/N=C(/C(=O)O)c1ccccc1CO/N=C(\C)c1cccc(C(F)(F)F)c1 | chemical recovery by SPE of plasma ([1]; equilibration time (d): 3): 38.9 ± 4.6%; chemical recovery by SPE of plasma ([1]; equilibration time (d): 6): 33.6 ± 9.2%; chemical recovery [2, 3]: 35.7 ± 5.6%
65.4 ± 4.9 | 25.4 ± 4.9 | 30.6 ± 4.5 | NC(=O)c1c(Cl)c(Cl)cc(C(=O)O)c1Cl | chemical recovery by SPE of plasma ([1]; equilibration time (d): 3): 49.6 ± 1.4%; chemical recovery by SPE of plasma ([1]; equilibration time (d): 6): 45.4 ± 6.4%; chemical recovery [2, 3]: 52.8 ± 4.5%
 |  | 3.53 ± 1.7 | CCCCn1cc[n+](C)c1 [1-Butyl-3-methyl-imidazolium] | chemical recovery by SPE of plasma ([1]; equilibration time (d): 1): 2.28 ± 2%; chemical recovery by SPE of plasma ([1]; equilibration time (d): 3): 3.98 ± 3.6%; chemical recovery by SPE of plasma ([1]; equilibration time (d): 6): 4.03 ± 4.2%; chemical recovery [2, 3]: 3.93 ± 4.5%
 |  |  | CC(C)(C)c1ccc(S(N)(=O)=O)cc1 [4-tert-Butylbenzenesulfonamide] | chemical recovery by SPE of plasma ([1]; equilibration time (d): 1): 11 ± 0.85%; chemical recovery by SPE of plasma ([1]; equilibration time (d): 3): 17 ± 1.5%; chemical recovery by SPE of plasma ([1]; equilibration time (d): 6): 11.3 ± 1.4%
 |  |  | Brc1ccc(Oc2ccc(Br)cc2Br)c(Br)c1 [BDE47] | chemical recovery by SPE of plasma ([1]; equilibration time (d): 1): 1.38 ± 1%; chemical recovery by SPE of plasma ([1]; equilibration time (d): 3): 1.56 ± 0.066%; chemical recovery by SPE of plasma ([1]; equilibration time (d): 6): 1.34 ± 0.21%
 |  |  | c1cc2ccc3ccc4ccc5cccc6c(c1)c2c3c4c56 [Benzo(ghi)perylene] | chemical recovery by SPE of plasma ([1]; equilibration time (d): 1): 2.59 ± 4.5%; chemical recovery by SPE of plasma ([1]; equilibration time (d): 3): 1.28 ± 1.1%; chemical recovery by SPE of plasma ([1]; equilibration time (d): 6): 1.37 ± 0.46%
 |  |  | c1ccc2c(c1)-c1ccc3ccc4cccc5cc-2c1c3c45 [Indeno(1,2,3-cd)pyrene] | chemical recovery by SPE of plasma ([1]; equilibration time (d): 1): 1.57 ± 0.15%; chemical recovery by SPE of plasma ([1]; equilibration time (d): 3): 1.3 ± 0.43%; chemical recovery by SPE of plasma ([1]; equilibration time (d): 6): 1.16 ± 0.33%
76.1 ± 3.2 | 42.6 ± 6 | 43.8 ± 0.64 | [O-][n+]1cccc2ccccc21 [Quinoline N-oxide] | 
65.6 ± 6.1 |  |  | CNC(=C[N+](=O)[O-])NCCSCc1ccc(CN(C)C)o1 [Ranitidine] | 
 |  | 38.6 ± 7.1 | O=C1NS(=O)(=O)c2ccccc21 [Saccharin] | 
 | 54.6 ± 13 | 48.9 ± 13 | O=C(O)CCCCCCCCC(=O)O [Sebacic-acid] | 
75.6 ± 6 | 20.1 ± 4.3 | 14.8 ± 5.5 | CCNc1nc(NCC)[nH]c(=O)n1 [Simazine-2-Hydroxy] | 
72.7 ± 3.6 | 33.4 ± 2.7 | 30 ± 3.4 | N[C@@H](CC(=O)N1CCn2c(nnc2C(F)(F)F)C1)Cc1cc(F)c(F)cc1F [Sitagliptin] | 
74.4 ± 5.8 |  | 61.3 ± 14 | CNC(=O)c1cc(Oc2ccc(NC(=O)Nc3ccc(Cl)c(C(F)(F)F)c3)cc2)ccn1 [Sorafenib] | 
 | 99.8 ± 34 | 82.2 ± 2.5 | O=C(O)CCCCCCC(=O)O [Suberic-acid] | 
 | 23 ± 2.4 | 21.6 ± 1.4 | OC[C@H]1O[C@H](O[C@]2(CCl)O[C@H](CCl)[C@@H](O)[C@@H]2O)[C@H](O)[C@@H](O)[C@H]1Cl [Sucralose] | chemical recovery [2, 3]: 58.3 ± 3.9%
69.2 ± 3.2 |  | 31.1 ± 2.5 | Nc1ccc(S(=O)(=O)Nc2nccs2)cc1 [Sulfathiazole] | chemical recovery [2, 3]: 51.1 ± 6.3%
76.7 ± 3.9 | 41.4 ± 3.8 | 35.5 ± 3.4 | CCNc1nc(NC(C)(C)C)[nH]c(=O)n1 [Terbuthylazine-2-hydroxy] | chemical recovery [2, 3]: 43.6 ± 5.5%
 | 29.2 ± 6.4 |  | CC(=O)N(CCN(C(C)=O)C(C)=O)C(C)=O [Tetraacetylethylenediamine] | 
 |  | 43 ± 3.8 | CCCC[N+](CCCC)(CCCC)CCCC [Tetrabutylammonium] | 
35.5 ± 5.1 |  | 28.4 ± 6.5 | CCCCCCCCCCCCCCOS(=O)(=O)O [Tetradecylsulfate] | 
 |  | 94.4 ± 29 | CCCCCCCCCCCCCC[N+](C)(C)C [Tetradecyltrimethylammonium] | 
 |  | 1.23 ± 0.72 | CC[N+](CC)(CC)CC [Tetraethylammonium] | 

chemical recovery [2, 4] [%] | chemical recovery [2, 5] [%] | chemical recovery [2, 6] [%] | Compound | also measured
76.1 ± 3.7 | 31.9 ± 3.7 | 28.4 ± 3.6 | COCCOCCOCCOCCOC [Tetraglyme] | chemical recovery [2, 3]: 39.7 ± 9%
 |  | 77.3 ± 28 | Cn1cnc2c1c(=O)[nH]c(=O)n2C [Theobromine] | 
101 ± 6.1 |  |  | Cn1c(=O)c2[nH]cnc2n(C)c1=O [Theophyllin] | chemical recovery [2, 3]: 95.7 ± 22%
80.4 ± 4.5 | 40.6 ± 4.9 | 41.3 ± 3 | c1ccc2[nH]c(-c3cscn3)nc2c1 [Thiabendazole] | chemical recovery [2, 3]: 49.3 ± 3.5%
47.5 ± 1.9 | 56.7 ± 5.2 | 36.5 ± 12 | Cc1c(Cl)cccc1Nc1ccccc1C(=O)O [Tolfenamic-acid] | 
 |  |  | C[C@]12C=CC3=C4CCC(=O)C=C4CCC3C1CC[C@@H]2O (stereo partly drawn) [Trenbolone] | chemical recovery [2, 3]: 47.4 ± 6.8%
 | 7.98 ± 1.3 | 18.7 ± 3.8 | CS(=O)(=O)OC[C@H](O)[C@@H](O)COS(C)(=O)=O [Treosulfan] | 
 |  | 30.3 ± 3.4 | CC(=O)OCC(COC(C)=O)OC(C)=O [Triacetin] | 
 |  |  | CC1(C)O[C@@H]2C[C@H]3[C@@H]4CCC5=CC(=O)C=C[C@]5(C)[C@@]4(F)[C@@H](O)C[C@]3(C)[C@]2(C(=O)CO)O1 [Triamcinolone acetonide] | chemical recovery [2, 3]: 47.3 ± 4.9%
 | 165 ± 16 | 109 ± 30 | CCCCOCCOCCOCCO [Triethylene-Glycol-Monobutyl-Ether] | 
 |  | 24.9 ± 4.5 | COCCOCCOCCOC [Triglyme] | 
72.5 ± 4.2 | 39.2 ± 3.2 | 45 ± 1.5 | COc1cc(Cc2cnc(N)nc2N)cc(OC)c1OC [Trimethoprim] | chemical recovery [2, 3]: 48 ± 6.2%
12.5 ± 2.5 | 24.5 ± 2.7 | 30.7 ± 4.5 | COC(=O)CC(O)(CC(=O)OC)C(=O)OC [Trimethylcitrate] | 
72.1 ± 3 | 38.7 ± 3.8 | 35 ± 2.5 | CCCCCCCC[N+](C)(C)C [Trimethyloctylammonium] | chemical recovery [2, 3]: 45.7 ± 6.1%
2.09 ± 3.1 |  | 7.35 ± 6.9 | CCCN(CCC)CCC [Tripropylamine] | 
 |  | 3.25 ± 5.6 | O=c1n(CC(Br)CBr)c(=O)n(CC(Br)CBr)c(=O)n1CC(Br)CBr (stereo not drawn) [Tris(2,3-dibromopropyl)isocyanurate] | 
107 ± 4.1 |  | 6.76 ± 2.9 | CCCCC(CC)COP(=O)(OCC(CC)CCCC)OCC(CC)CCCC (stereo not drawn) [Tris(2-ethylhexl)phosphate] | chemical recovery [2, 3]: 4.16 ± 1.6%
76.1 ± 3.9 | 72.3 ± 6.7 | 67.7 ± 4.7 | COc1nc(NC(=O)NS(=O)(=O)c2ccccc2C(F)(F)F)nc(C(F)(F)F)n1 [Tritosulfuron] | 
 |  | 0.287 ± 0.085 | CCCCCCCCOc1ccc(-c2nc(-c3ccc(C)cc3C)nc(-c3ccc(C)cc3C)n2)c(O)c1 [UV-1164] | 
 |  | 26.5 ± 9.6 | CCCCCCOC(=O)c1ccccc1C(=O)c1ccc(N(CC)CC)cc1O [Uvinul-A-Plus] | 
 | 31.3 ± 3.1 | 31.2 ± 2.6 | CN(C)CC(c1ccc(O)cc1)C1(O)CCCCC1 (stereo not drawn) [Venlafaxine-O-desmethyl] | 
 |  |  | Cl[C@H]1[C@H](Cl)[C@@H](Cl)[C@H](Cl)[C@@H](Cl)[C@H]1Cl [delta-HCH] | chemical recovery [2, 3]: 40.6 ± 13%
 |  | 91 ± 13 | Cc1ccc(OS(=O)(=O)O)cc1 [p-Tolylsulfate] | 
 |  | 14.3 ± 7.5 | C/C(=C\c1ccccc1)c1ccccc1 [trans-a-Methylstilben] | 

Compound | chemical recovery [2, 4] [%] | chemical recovery [2, 5] [%] | chemical recovery [2, 6] [%] | also measured
Cc1cc(C)nc(Nc2ccccc2)n1 [Pyrimethanil] | 61.9 ± 3 | 51.1 ± 7.5 | 31.2 ± 2.5 | 
CC(Oc1ccc(Oc2cnc3cc(Cl)ccc3n2)cc1)C(=O)O (stereo not drawn) [Quizalofop] | 67.8 ± 5.7 | 43.1 ± 5.6 | 28.1 ± 1.3 | 
CC[C@@H](C(=O)[C@@H](C)[C@@H](O)[C@H](C)[C@@H]1O[C@@H]([C@@H](CC)C(=O)O)CC[C@@H]1C)[C@H]1O[C@]2(C=C[C@@H](O)[C@]3(CC[C@@](C)([C@H]4CC[C@](O)(CC)[C@H](C)O4)O3)O2)[C@H](C)C[C@@H]1C [Salinomycin] | 51.9 ± 13 |  | 26.7 ± 6.9 | 
CCCC[N+]1(C)[C@H]2CC(OC(=O)C(CO)c3ccccc3)C[C@H]1[C@H]1O[C@H]12 (stereo partly drawn) [Scopolamine-N-butyl] | 65.8 ± 3.2 | 42.2 ± 2.6 | 38.4 ± 3.4 | chemical recovery [2, 3]: 44.2 ± 6.1%
C=CCC1(C(C)CCC)C(=O)NC(=O)NC1=O (stereo not drawn) [Secobarbital] | 72.8 ± 5.8 | 53.8 ± 5 | 36.7 ± 1.2 | chemical recovery [2, 3]: 61.1 ± 8.4%
O=C1C[C@@H]2OCC=C3CN4CC[C@]56c7ccccc7N1[C@H]5[C@H]2[C@H]3C[C@H]46 [Strychnine] | 59.5 ± 4.5 |  |  | 
CC(C)(C)C(O)(CCc1ccc(Cl)cc1)Cn1cncn1 (stereo not drawn) [Tebuconazole] | 77.8 ± 3.1 |  |  | 
CCOP(=S)(OCC)SCSC(C)(C)C [Terbufos] |  |  | 14.7 ± 4.8 | 
CN1COCN(Cc2cnc(Cl)s2)/C1=N\[N+](=O)[O-] [Thiamethoxam] | 73 ± 2.7 | 55.7 ± 4.8 | 50 ± 3.5 | 
COP(=S)(OC)Oc1c(Cl)cc(C)cc1Cl [Tolclofos-methyl] | 62 ± 6.2 |  | 33.8 ± 9.1 | 
COc1cccc([C@@]2(O)CCCC[C@@H]2CN(C)C)c1 [Tramadol] |  | 31.3 ± 3.1 | 31.2 ± 2.6 | 
O=C(O)COc1nc(Cl)c(Cl)cc1Cl [Triclopyr] | 70.3 ± 2.9 | 43 ± 3.5 | 37 ± 3.9 | 
COP(=O)(OC)OC [Trimethylphosphate] | 0.912 ± 1.3 |  | 3.11 ± 2.1 | 
O=P(OCC(Br)CBr)(OCC(Br)CBr)OCC(Br)CBr (stereo not drawn) [Tris(2,3-dibromopropyl)phosphate] |  | 60.7 ± 8 | 14.8 ± 3.3 | 
CC(C)(c1ccccc1)c1cc(-n2nc3ccccc3n2)c(O)c(C(C)(C)c2ccccc2)c1 [UV-234] |  |  | 0.688 ± 0.28 | 
CC(C)(C)c1cc(-n2nc3ccccc3n2)c(O)c(C(C)(C)C)c1 [UV-320] |  |  | 3.34 ± 1 | 
CC(C)(C)c1cc(-n2nc3ccc(Cl)cc3n2)c(O)c(C(C)(C)C)c1 [UV-327] |  |  | 1.82 ± 1.6 | 
CCC(C)(C)c1cc(-n2nc3ccccc3n2)c(O)c(C(C)(C)CC)c1 [UV-328] |  |  | 1.74 ± 0.56 | 
CC(C)(C)CC(C)(C)c1cc(-n2nc3ccccc3n2)c(O)c(C(C)(C)c2ccccc2)c1 [UV-928] |  |  | 0.72 ± 0.29 | 
O=S1OC[C@@H]2[C@H](CO1)[C@@]1(Cl)C(Cl)=C(Cl)[C@]2(Cl)C1(Cl)Cl (stereo partly drawn) [alpha-Endosulfan] | 13.6 ± 2.6 |  | 0.649 ± 0.17 | 
COc1cc(-c2ccc(N)c(OC)c2)ccc1N [o-Dianisidine] | 46.7 ± 7.3 | 0.374 ± 0.16 | 15.5 ± 3 | 
